pEC50, pIC50: −log10 of the molar value.
How the values were obtained:
Format in all cases: cell-based
[1] = tested on: DU-145 prostate cancer cells; assay: CellTiter-Glo luminescent cell viability assay, DU-145
Protocol: In example 1, CELLTITER-GLO was used to test etonogestrel against prostate cancer. DU-145 cells were handled as described above, and a DU-145 96-well cell culture plate was obtained. The complete medium for DU-145 cells was RPMI-1640 (a live product), Cat# A1049101, with a cells/well density of 4000. 2. The drug analyte etonogestrel was prepared and administered (200× final concentration): a) DMSO was used to dilute the analyte etonogestrel to 20 mM for use. 79 μL of the 20 mM analyte prepared in step a) was added to the first well in the first row of the dilution plate, and then 54 μL of DMSO solution was added to the second through ninth wells of the first row. 25 μL of solution was aspirated from the first to the second well, and after mixing well 25 μL of solution was aspirated from the second to the third well, and this was repeated until the 9th well in order to ensure that 3.16 dilution of the medication would be carried out one-by-one. b) 95 μl of cell-specific complete medium was added to the working plate, each medication to 9 wells. […] The final concentrations (μM) of the analyte drug in wells 2-10 in FIG. 1 are, in order: 100, 31.64557, 10.01442, 3.16912, 1.002886, 0.317369, 0.100433, 0.031783, 0.010058; a) Before testing, the DU-145 96-well drug screening plate described in 3 above was stabilized to room temperature for 20-30 minutes. c) 100 μl of CellTiter-Glo reagent (prepared as described in 1 above) was added to all drug screening plates and mixed evenly. d) It was thoroughly oscillated in a 96-well microplate oscillator for 2 minutes to allow the cells to undergo full lysis. e) It was stored away from light at room temperature for 15 minutes before carrying out luminescent signal detection to ensure signal stability. f) An EnSpire multi-function plate reader was used at […] to read the luminescent signals. g) Data was processed and analyzed.

[2] = tested on: NCI-H1703 human lung squamous carcinoma cells; assay: CellTiter-Glo luminescent cell viability assay, NCI-H1703; details: 72 hours
[3] = tested on: NCI-H2122 human lung cancer cells; assay: CellTiter-Glo luminescent cell viability assay, NCI-H2122; details: 72 hours

pIC50 ([1]; Homo sapiens, DU-145 cells, 72 hours, CellTiter-Glo): 4.80
pEC50 ([1]; Homo sapiens, DU-145 cells, FIG. 2 dose-response curve, 72 hours): 4.93
pIC50 [2]: ≤ 4.00
pIC50 [3]: ≤ 4.00
SMILES: C#C[C@]1(O)CC[C@H]2[C@@H]3CCC4=CC(=O)CC[C@@H]4[C@H]3C(=C)C[C@@]21CC [etonogestrel]
inhibitory effect on the proliferation of prostate cancer cells ([1]; DU-145 compared with NCI-H1703 and NCI-H2122): specific inhibitory effect on the proliferation of prostate cancer cells

From patent publication US10441591B2, “Applications for etonogestrel in preparing anti-prostate cancer products” (SHANGHAI JIAO TONG UNIVERSITY, priority 2015, dated 2019)
